Marks after values point to notes of the source that are not given here. Blank lines part the entries; values can stand above or below the compound they belong to.
What was measured:
amyloid-beta = amyloid-beta (Homo sapiens, UniProt P05067); assay: Binding affinity to amyloid-beta in AD brain homogenate; conditions: non-radioactive derivatives; for IC50: human AD brain homogenate
Procedure: 20 μg of human Alzheimer disease brain homogenate was incubated with a dilution series of each test compound (1000 to 0.06 nM) in the presence of 800 Bq of ^18F-labeled beta-amyloid binder. The samples were shaken at 110 rpm for 45 min at 37° C. Samples were then filtered through GF/B 96 well filter plates and washed twice with 300 μL assay buffer (PBS containing 0.1% BSA and 2% DMSO). Thereafter, filter plates were sealed and a Fuji Film Imaging Plate (BAS-SR2025) was placed on top. The imaging plate was analyzed after overnight exposition using a Fuji Film BAS-5000. Non-specific signal was determined with samples containing ^18F-labeled beta-amyloid binder in the presence of assay buffer without brain substrate and competitor. […] The unblocked ^18F-labeled beta-amyloid binder signal was defined as total binding. IC50 values were calculated by Prism V6 (GraphPad) setting total binding to 100%.

MAO B = molecular target: T1, MAO B (Homo sapiens, UniProt P27338); assay: MAO B 18F-fluoro deprenyl competition assay in human HC brain homogenate; format: binding; parameters: Low affinity to MAO B (IC50 in HC homogenate): key: −: poor; ∘: moderate; +: good; ++: very good; +++: excellent
T1 construct: 20 μg of human brain homogenate (without AD pathology); from tissue; host or cells: human brain homogenate without AD pathology (healthy control)
T1 sequence (P27338 1-520): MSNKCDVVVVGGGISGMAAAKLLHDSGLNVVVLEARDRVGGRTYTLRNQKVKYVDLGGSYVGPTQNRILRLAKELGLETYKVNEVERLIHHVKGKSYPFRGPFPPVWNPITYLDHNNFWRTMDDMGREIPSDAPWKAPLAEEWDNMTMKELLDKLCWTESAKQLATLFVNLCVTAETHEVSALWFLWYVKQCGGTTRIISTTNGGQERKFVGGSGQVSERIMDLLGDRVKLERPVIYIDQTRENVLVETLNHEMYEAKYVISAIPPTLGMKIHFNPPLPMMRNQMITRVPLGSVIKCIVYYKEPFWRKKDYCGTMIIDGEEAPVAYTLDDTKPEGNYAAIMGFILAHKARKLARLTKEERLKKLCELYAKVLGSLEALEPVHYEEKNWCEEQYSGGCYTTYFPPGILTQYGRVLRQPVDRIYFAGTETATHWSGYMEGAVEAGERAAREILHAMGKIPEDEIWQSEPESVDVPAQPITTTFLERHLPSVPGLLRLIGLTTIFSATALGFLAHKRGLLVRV
Procedure: The samples were shaken at 110 rpm for 45 min at 37° C. Samples were then filtered through GF/B 96 well filter plates and washed twice with 300 μL assay buffer (PBS containing 0.1% BSA and 2% DMSO). Thereafter, filter plates were sealed and a Fuji Film Imaging Plate (BAS-SR2025) was placed on top. The imaging plate was analyzed after overnight exposition using a Fuji Film BAS-5000. […] IC50 values were calculated by Prism V6 (GraphPad) setting total binding to 100%.

[1] = molecular target: T2, Monoamine oxidase A (MAO A) (Homo sapiens, UniProt P21397); conditions: Vermeiren et al. 2015; cited from earlier work
T2 sequence (P21397 1-527): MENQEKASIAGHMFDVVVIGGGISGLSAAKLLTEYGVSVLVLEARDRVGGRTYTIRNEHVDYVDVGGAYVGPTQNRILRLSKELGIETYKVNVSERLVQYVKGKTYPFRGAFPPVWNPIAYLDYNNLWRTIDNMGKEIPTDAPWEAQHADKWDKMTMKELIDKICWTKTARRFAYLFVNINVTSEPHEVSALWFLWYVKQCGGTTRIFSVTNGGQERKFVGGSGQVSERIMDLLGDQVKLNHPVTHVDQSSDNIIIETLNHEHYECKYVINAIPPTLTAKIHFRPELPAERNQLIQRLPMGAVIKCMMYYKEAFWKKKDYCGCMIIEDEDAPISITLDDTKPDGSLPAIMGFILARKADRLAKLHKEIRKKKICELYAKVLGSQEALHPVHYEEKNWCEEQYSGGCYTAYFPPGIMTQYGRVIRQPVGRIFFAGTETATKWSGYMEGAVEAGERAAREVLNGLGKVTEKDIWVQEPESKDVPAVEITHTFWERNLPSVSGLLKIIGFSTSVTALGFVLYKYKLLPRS

[2] = system: Tau (AD brain homogenate vs HC brain homogenate); assay: Tracer signal in AD brain homogenate vs healthy control brain homogenate; format: binding, human; parameters: High signal to noise (AD brain homogenate/HC brain homogenate) / High signal to noise (further homogenates): key to the marks not given beside the values; conditions: for Ratio of tracer signal in AD brain homogenates/signal in HC brain homogenates: further homogenates
[3] = system: Tau in human brain sections (AD, PSP, PiD, HC); assay: Autoradiography in human brain slices; format: binding
Procedure: 18 micron thick frozen human brain slices and 6 micron thick human FFPE brain slices were examined via autoradiography. Brain sections were equilibrated for at least 1 h in 1×PBS solution prior to use in the experiment. Each brain section was covered with a solution of the ^18F-labeled tracer (200 Bq/μl, 500 μl) in 1×PBS. For blocking experiments with the corresponding ^19F-compound, an excess of the blocking compound (10 μM) was mixed with the ^18F-compound. The brain sections were allowed to incubate with the tracer solution at room temperature for 1 h, drained afterwards and placed in a slide holder. The slides were then washed sequentially with 1×PBS for 1 min; 70% EtOH in 1×PBS for 2 min; 30% EtOH in 1×PBS for 2 min; and 1×PBS for 1 min. The slides were allowed to air-dry before being placed on Fuji imaging plates […] for overnight exposure. The imaging plates were scanned and the signal was measured using Fuji software to produce an autoradiographic image of the brain section.

Tau pathology = assay: Human imaging study (dynamic PET); format: in vivo
Procedure: In a clinical trial, subjects with AD or PSP as well as non-demented controls (NDC) underwent dynamic PET imaging for over 3 h following 370 MBq bolus injection of ^18F-3a.

[4] = system: Tau (AD brain vs mouse brain homogenate); assay: Tracer signal in AD brain vs mouse brain homogenate; format: binding, human / mouse; parameters: High signal to noise (AD brain/mouse brain homogenate): key: −: poor; ∘: moderate; +: good; ++: very good; +++: excellent

amyloid-beta, sequence (P05067 672-711 limits assumed): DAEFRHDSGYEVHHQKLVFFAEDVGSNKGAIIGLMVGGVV

- IC50 (amyloid-beta): > 1000 nM
- IC50 (MAO B): 170 nM
Compound: [18F]c1ccc(-c2ccc3c(c2)[nH]c2ccncc23)cn1 [^18F-1]
- Kd [1]: 1.5 nM

- IC50 (amyloid-beta): > 1000 nM
- IC50 (MAO B): > 1000 nM
Compound: [18F]c1ccc(-c2ccc3c(n2)[nH]c2ccncc23)cn1 [^18F-2]

- Binding to AD brain (Braak stage 1/3), autoradiography on human brain slices ([3]; grade, in house data): +++^a)
- Binding to AD brain (Braak stage 5/6), autoradiography on human brain slices ([3]; grade, in house data): +++^a)
- Binding to PSP, autoradiography on human brain slices ([3]; grade, in house data): +++^a)
- Binding to PiD, autoradiography on human brain slices ([3]; grade, in house data): +++^a)
- Low affinity to amyloid-beta (IC50 in AD brain homogenate) (amyloid-beta; grade): +++^a)
- IC50 (amyloid-beta): > 1000 nM
- IC50 (MAO B): > 1000 nM
- Fold higher MAO B IC50 than compound 18F-1 (MAO B; HC brain homogenate): > 5 fold
- Low affinity to MAO B (IC50 in HC homogenate) (MAO B; grade, non-radioactive derivatives): +++
- Brain uptake in human subjects (Tau pathology; 370 MBq bolus injection, PET): good
- Washout from non-target brain regions in human subjects (Tau pathology; 370 MBq bolus injection, PET): fast
Compound: [18F]c1cc(-c2ccc3c(n2)[nH]c2ccncc23)ccn1 [^18F-3a]
- Fold higher signal to noise ratio than 18F-1 ([2]; AD brain homogenate vs HC brain homogenate): 5.2 fold
- Fold higher signal to noise ratio than 18F-1 ([2]; further AD brain homogenates vs HC brain homogenate): 8.2-13.5 fold
- Ratio of tracer signal in AD brain homogenates/signal in HC brain homogenates ([2]; first of 3 values): 14.0
- Ratio of tracer signal in AD brain homogenates/signal in HC brain homogenates ([2]; second of 3 values): 17.9
- Ratio of tracer signal in AD brain homogenates/signal in HC brain homogenates ([2]; third of 3 values): 33.8
- High signal to noise (further homogenates) ([2]; grade, 3 different AD brain homogenates): +++
- High signal to noise (AD brain homogenate/HC brain homogenate) ([2]; grade, 18F tracers): ++
- Autoradiography signal in PSP brain sections [3]: strong signal
- Autoradiography signal in PiD brain sections [3]: strong signal
- Autoradiography signal in healthy control (HC) sections [3]: no specific signal
- Autoradiography signal in AD brain sections ([3]; blockable with excess cold compound): strong punctated staining
- Uptake in temporal, parietal and frontal lobes (Tau pathology; AD subjects): focal asymmetric uptake
- Uptake in globus pallidus and substantia nigra (Tau pathology; PSP subjects): focal increased uptake
- Uptake in choroid plexus, basal ganglia, striatum, amygdala, meninges or other off-target regions (Tau pathology; non-demented controls (NDC)): no increased uptake
- Ratio of tracer signal in AD brain/signal in mouse brain homogenate ([4]; 18F tracers): 9.2^a
- Fold higher signal to noise ratio than 18F-1 ([4]; AD brain homogenate vs whole mouse brain homogenate): 4.2 fold
- High signal to noise (AD brain/mouse brain homogenate) ([4]; grade): ++

From patent US10835624B2, “Compounds for imaging Tau protein aggregates” (AC IMMUNE S.A., priority 2016, dated 2020)
